The results in this text go back to ChEMBL document CHEMBL4673338, “ROCK inhibitors 4: Structure-activity relationship studies of 7-azaindole-based rho kinase (ROCK) inhibitors” (Bioorg Med Chem Lett, 2021).

Bounds are passed on as bounds.

As usually defined, the Ki is the equilibrium dissociation constant of an inhibitor or competing ligand from its target. Lower therefore signals higher affinity. What is called IC50 is the concentration needed to halve the response being measured. As usually defined, the AUC(0-inf) is the area under the concentration-time curve extrapolated to infinity. The term clearance denotes a measure of how efficiently the substance is removed, as volume per time. Lower therefore signals a low capacity for elimination. In general, half-life refers to the time needed for the level to fall by half in the phase considered. A lower half-life goes with fast loss. By Cmax is commonly meant the peak of the concentration-time curve. For orientation: AUC means concentration integrated over time. A lower AUC goes with low exposure. The bioavailability is dose-corrected exposure relative to a reference, in per cent.

The target of data set [1] is Rho-associated protein kinase 1 (Homo sapiens, UniProt Q13464). In words: Inhibition of ROCK1 (unknown origin).
Chain of Rho-associated protein kinase 1 (Q13464 whole entry): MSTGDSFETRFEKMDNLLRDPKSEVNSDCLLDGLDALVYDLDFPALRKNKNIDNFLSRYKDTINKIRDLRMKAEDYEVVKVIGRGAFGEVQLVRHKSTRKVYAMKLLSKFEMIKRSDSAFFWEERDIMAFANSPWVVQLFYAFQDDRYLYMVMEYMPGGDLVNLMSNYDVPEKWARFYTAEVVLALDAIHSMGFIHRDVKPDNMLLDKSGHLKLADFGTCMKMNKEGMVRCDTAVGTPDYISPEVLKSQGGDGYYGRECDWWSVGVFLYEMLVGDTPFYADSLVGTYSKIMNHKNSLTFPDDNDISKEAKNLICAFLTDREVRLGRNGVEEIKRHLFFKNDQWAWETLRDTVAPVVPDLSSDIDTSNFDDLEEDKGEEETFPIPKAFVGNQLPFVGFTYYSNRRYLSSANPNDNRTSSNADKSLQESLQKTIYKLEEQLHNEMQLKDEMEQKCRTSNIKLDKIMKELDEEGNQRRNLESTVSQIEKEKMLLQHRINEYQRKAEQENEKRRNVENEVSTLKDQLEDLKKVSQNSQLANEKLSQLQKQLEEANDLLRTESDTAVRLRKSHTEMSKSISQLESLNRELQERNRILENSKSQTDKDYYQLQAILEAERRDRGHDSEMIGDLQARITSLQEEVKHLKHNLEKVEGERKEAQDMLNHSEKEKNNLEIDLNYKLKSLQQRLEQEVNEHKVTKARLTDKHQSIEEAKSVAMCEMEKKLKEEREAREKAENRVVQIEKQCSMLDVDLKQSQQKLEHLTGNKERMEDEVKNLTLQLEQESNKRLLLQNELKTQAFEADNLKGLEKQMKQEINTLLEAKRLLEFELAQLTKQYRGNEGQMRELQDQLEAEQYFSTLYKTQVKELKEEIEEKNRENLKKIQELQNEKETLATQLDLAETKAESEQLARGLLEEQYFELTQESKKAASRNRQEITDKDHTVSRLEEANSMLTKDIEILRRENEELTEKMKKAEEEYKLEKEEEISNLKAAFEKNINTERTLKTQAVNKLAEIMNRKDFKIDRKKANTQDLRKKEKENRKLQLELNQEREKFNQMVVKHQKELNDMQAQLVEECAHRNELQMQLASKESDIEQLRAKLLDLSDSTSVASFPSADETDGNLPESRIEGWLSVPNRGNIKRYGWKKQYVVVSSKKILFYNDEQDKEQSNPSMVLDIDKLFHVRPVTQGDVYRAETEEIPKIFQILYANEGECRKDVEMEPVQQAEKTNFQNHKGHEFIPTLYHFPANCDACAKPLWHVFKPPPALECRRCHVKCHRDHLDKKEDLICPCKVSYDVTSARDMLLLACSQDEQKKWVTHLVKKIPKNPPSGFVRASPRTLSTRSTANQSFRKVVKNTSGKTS
In data set [2] the target is Cytochrome P450 3A4 (Homo sapiens, UniProt P08684). In words: Inhibition of CYP3A4 (unknown origin). It counts as ADME.
Chain of Cytochrome P450 3A4 (P08684 whole entry): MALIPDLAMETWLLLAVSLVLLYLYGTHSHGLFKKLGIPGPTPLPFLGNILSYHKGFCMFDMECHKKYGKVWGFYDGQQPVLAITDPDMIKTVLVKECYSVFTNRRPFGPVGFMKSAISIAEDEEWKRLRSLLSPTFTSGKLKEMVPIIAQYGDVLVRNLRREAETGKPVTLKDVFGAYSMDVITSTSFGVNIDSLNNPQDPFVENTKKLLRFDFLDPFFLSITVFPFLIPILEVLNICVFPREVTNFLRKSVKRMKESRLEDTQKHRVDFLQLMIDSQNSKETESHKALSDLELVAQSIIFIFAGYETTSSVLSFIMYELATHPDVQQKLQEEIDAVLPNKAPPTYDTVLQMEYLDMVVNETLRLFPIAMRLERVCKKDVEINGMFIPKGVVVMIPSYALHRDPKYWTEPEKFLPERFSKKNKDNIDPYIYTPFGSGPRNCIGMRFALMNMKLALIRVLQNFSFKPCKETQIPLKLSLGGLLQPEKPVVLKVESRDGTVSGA
Data set [3] is filed under the species Homo sapiens. In words: Selectivity index, ratio of Ki for PKA (unknown origin) to Ki for ROCK1 (unknown origin).
The subject of data set [4] is THP-1. Put plainly: Antimigratory activity against human THP-1 cells. The data set is classed as functional, cell-based.
Data set [5] can be described thus: Volume of distribution at steady state in rat at 1 mg/kg, iv. It counts as ADME, organism-based. To be noted: in vivo, read-out: Vdss.
The nature of data set [6]: AUC(0 to infinity) in rat at 1 mg/kg, iv. It counts as ADME, organism-based. More on the design: route intravenous, time infinity, dose 1 mg/kg. As to conditions: in vivo.
For data set [7], the target named is Voltage-gated inwardly rectifying potassium channel KCNH2 (Homo sapiens, UniProt Q12809). Put plainly: Inhibition of human ERG.
Chain of Voltage-gated inwardly rectifying potassium channel KCNH2 (Q12809 whole entry): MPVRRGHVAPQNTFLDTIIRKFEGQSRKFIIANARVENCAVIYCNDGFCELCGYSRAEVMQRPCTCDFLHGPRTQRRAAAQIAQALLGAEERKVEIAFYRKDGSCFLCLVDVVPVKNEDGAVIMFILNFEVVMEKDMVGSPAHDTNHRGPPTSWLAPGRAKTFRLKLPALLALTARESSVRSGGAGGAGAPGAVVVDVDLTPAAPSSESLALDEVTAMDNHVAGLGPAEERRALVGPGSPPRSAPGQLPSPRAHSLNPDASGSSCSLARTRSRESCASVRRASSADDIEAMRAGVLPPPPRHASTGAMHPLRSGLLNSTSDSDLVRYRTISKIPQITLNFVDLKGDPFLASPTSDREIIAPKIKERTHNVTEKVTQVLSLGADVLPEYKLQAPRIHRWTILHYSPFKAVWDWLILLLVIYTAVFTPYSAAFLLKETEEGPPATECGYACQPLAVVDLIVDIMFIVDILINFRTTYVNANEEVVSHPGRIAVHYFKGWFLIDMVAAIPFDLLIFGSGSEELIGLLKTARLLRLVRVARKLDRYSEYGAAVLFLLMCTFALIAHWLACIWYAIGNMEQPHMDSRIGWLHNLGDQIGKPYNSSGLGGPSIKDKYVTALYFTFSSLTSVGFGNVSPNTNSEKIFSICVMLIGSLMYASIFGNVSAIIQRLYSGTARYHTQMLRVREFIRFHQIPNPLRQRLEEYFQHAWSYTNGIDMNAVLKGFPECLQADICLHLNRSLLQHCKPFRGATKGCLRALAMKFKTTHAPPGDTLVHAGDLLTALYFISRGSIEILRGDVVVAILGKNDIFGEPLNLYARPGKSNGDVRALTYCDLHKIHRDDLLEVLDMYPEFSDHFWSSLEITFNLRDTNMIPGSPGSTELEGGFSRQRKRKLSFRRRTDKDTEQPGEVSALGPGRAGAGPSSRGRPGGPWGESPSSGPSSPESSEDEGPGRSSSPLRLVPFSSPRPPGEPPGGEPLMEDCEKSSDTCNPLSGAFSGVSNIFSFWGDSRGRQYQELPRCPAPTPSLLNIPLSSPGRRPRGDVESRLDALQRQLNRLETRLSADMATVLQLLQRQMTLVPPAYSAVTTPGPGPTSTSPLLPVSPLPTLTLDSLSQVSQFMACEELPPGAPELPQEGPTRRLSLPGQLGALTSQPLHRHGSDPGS
Data set [8] in a line: Intrinsic clearance in human Hepatocyte assessed per million cells. It counts as ADME, tissue-based. As to conditions: hepatocytes, read-out: CLH.
Data set [9] is described as follows: Clearance in rat at 1 mg/kg, iv. The data set is classed as ADME, organism-based. To be noted: in vivo.
Data set [10] can be described thus: Half life in rat at 1 mg/kg, iv. The data set is classed as ADME, organism-based. To be noted: in vivo.
The nature of data set [11]: Intrinsic clearance in rat Hepatocyte assessed per million cells. The data set is classed as ADME, tissue-based. As to conditions: hepatocytes, read-out: CLH.
A short description of data set [12]: Cmax in rat at 3 mg/kg, po. It counts as ADME, organism-based. Also on record: route oral, dose 3 mg/kg. To be noted: in vivo.
Data set [13] can be described thus: AUC(0 to infinity) in rat at 3 mg/kg, po. It counts as ADME, organism-based. More on the design: route oral, time infinity, dose 3 mg/kg. To be noted: in vivo.
The nature of data set [14]: Oral bioavailability in rat at 3 mg/kg. As to conditions: in vivo. The data set is classed as ADME, organism-based.

`CS(=O)(=O)Nc1cccc(CC(=O)Nc2nc(-c3c[nH]c4nccc(Cl)c34)cs2)c1`: the affinity in data set [1] corresponds to a Ki of 92 nM. Moreover, in data set [2], the half-maximal inhibitory concentration (IC50) was determined as 8000 nM. Besides, in data set [3], the Ratio Ki amounted to 2.
`CS(=O)(=O)Nc1cccc(CC(=O)Nc2nc(-c3c[nH]c4nccc(F)c34)cs2)c1` registered a Ki in data set [1] of 4 nM. The IC50 was 80 nM in data set [4] and 36000 nM in data set [2]. For the same molecule, in data set [3], the Ratio Ki was 31.
In [1], `CS(=O)(=O)Nc1cccc(CC(=O)Nc2cc(-c3c[nH]c4ncccc34)ncn2)c1` yielded a Ki of 7 nM. In addition, the IC50 in data set [4] turned out to be 820 nM; in data set [2], 100000 nM. The Ratio Ki in data set [3] amounted to 20.
The like results for `CS(=O)(=O)Nc1cccc(CC(=O)Nc2nc(-c3c[nH]c4ncc(Cl)cc34)cs2)c1` were, in that order, 11 nM, 310 nM, 8000 nM and 46.
In [1], `CS(=O)(=O)Nc1cccc(CC(=O)Nc2cc(-c3c[nH]c4ncccc34)cs2)c1` registered a Ki of 100 nM. Further, in [2], the IC50 was 5000 nM. In [3], the Ratio Ki is 1.
`CS(=O)(=O)Nc1cccc(CC(=O)Nc2csc(-c3c[nH]c4ncccc34)n2)c1` registered a Ki in data set [1] of 10 nM. Besides, the IC50 in data set [4] amounted to 370 nM; in data set [2], 12000 nM. In addition, the Ratio Ki in data set [3] worked out at 31.
As for `O=C(Cc1cccc(OCCCC2CCNCC2)c1)Nc1nc(-c2c[nH]c3nccc(F)c23)cs1`, the Vd in [5] was 19 L/kg. This molecule came in with an AUC(0-inf) in data set [6] of 250 ng·h/mL. Further, the IC50 in data set [7] is greater than 30000 nM; in data set [4], 50 nM; in data set [2] it was 100000 nM. Further, the hepatocyte CLint in data set [8] amounted to 5.7 µL/min/1e6 cells. The molecule also displayed a clearance in data set [9] of 68 mL/min/kg. This molecule came in with a Ki in [1] of 3 nM. In data set [10], this molecule had a half-life of 5.5 h. Further, the Ratio Ki in data set [3] came out at 143.
Consider `CS(=O)(=O)Nc1cccc(CC(=O)Nc2nc(-c3c[nH]c4ncc(F)cc34)cs2)c1`, for which the IC50 is greater than 30000 nM in data set [7], 70 nM in data set [4] and 6000 nM in data set [2]. The hepatocyte CLint in data set [8] was determined as 4.3 µL/min/1e6 cells; in data set [11], 11.7 µL/min/1e6 cells. For the same molecule, the Ki in data set [1] is 3 nM. The Ratio Ki in [3] came to 53.
Take `CN1CCN(CCCOc2cccc(CC(=O)Nc3nc(-c4c[nH]c5ncccc45)cs3)c2)CC1`: the Vd in data set [5] stood at 10 L/kg. Further, the AUC(0-inf) in [6] is 150 ng·h/mL. The hepatocyte CLint amounted to 7.5 µL/min/1e6 cells in data set [8] and 26.8 µL/min/1e6 cells in data set [11]. In [9], this molecule displayed a clearance of 114 mL/min/kg. The molecule also showed a half-life in [10] of 0.71 h.
As for `CS(=O)(=O)Nc1cccc(CC(=O)Nc2nccc(-c3c[nH]c4ncccc34)n2)c1`, the Ki in [1] was determined as 48 nM. Besides, the IC50 worked out at 8000 nM in data set [4] and 48000 nM in [2]. In data set [3], the Ratio Ki was 23.
The like results for `CS(=O)(=O)Nc1cccc(CC(=O)Nc2nnc(-c3c[nH]c4ncccc34)s2)c1` were, in that order, 7 nM, 1520 nM, 100000 nM and 34.
`O=C(Cc1cccc(OCCCC2CCNCC2)c1)Nc1nc(-c2c[nH]c3ncccc23)cs1`: the Vd in data set [5] was found to be 24 L/kg. Besides, the AUC(0-inf) in data set [6] was found to be 130 ng·h/mL. The clearance in [9] stood at 128 mL/min/kg. In data set [10], this molecule had a half-life of 5.4 h. The same molecule gave an IC50 in [4] of 20 nM.
For the molecule `CN1CCN(CCCOc2cccc(CC(=O)Nc3nc(-c4c[nH]c5ncc(F)cc45)cs3)c2)CC1`, the Ki in data set [1] is 5 nM. The molecule also yielded an IC50 in data set [4] of 260 nM. The Ratio Ki in [3] was found to be 240.
`O=C(Cc1cccc(OCCCC2CCNCC2)c1)Nc1nc(-c2c[nH]c3ncc(F)cc23)cs1`: in data set [5], the Vd was determined as 8.7 L/kg. In data set [6], this molecule registered an AUC(0-inf) of 250 ng·h/mL. Moreover, the values for the IC50 in data set [7] and in data set [4] were greater than 30000 nM and 140 nM, respectively. In addition, the hepatocyte CLint worked out at 6.3 µL/min/1e6 cells in data set [8] and 20.5 µL/min/1e6 cells in data set [11]. Further, the clearance in data set [9] came to 66 mL/min/kg. This molecule registered a Ki in [1] of 1 nM. The molecule further showed a half-life in data set [10] of 3.8 h. Moreover, the Ratio Ki in [3] was greater than 480.
As to `Cc1sc(NC(=O)Cc2cccc(NS(C)(=O)=O)c2)nc1-c1c[nH]c2ncccc12`, affinity in data set [1] was put at a Ki of 52 nM. In data set [2], this molecule showed an IC50 of 5000 nM. Besides, the Ratio Ki in [3] came to 31.
`CS(=O)(=O)Nc1cccc(CC(=O)Nc2ccc(-c3c[nH]c4ncccc34)s2)c1`: in data set [1], the Ki stood at 8 nM. For the same molecule, the figures for the IC50 in [4] and in data set [2] were 340 nM and 6000 nM, respectively. For the same molecule, in data set [3], the Ratio Ki amounted to 39.
As to `CS(=O)(=O)Nc1cccc(CC(=O)Nc2nc(-c3c[nH]c4ncccc34)cs2)c1`, the peak level in data set [12] (Cmax) was 900 ng/mL. In addition, the Vd in data set [5] is 0.6 L/kg. Moreover, the AUC in data set [6] turned out to be 2400 ng·h/mL; in [13], 9200 ng·h/mL. The hepatocyte CLint in data set [8] turned out to be 4 µL/min/1e6 cells; in data set [11], 6.7 µL/min/1e6 cells. Further, the clearance in data set [9] was 7 mL/min/kg. Besides, the F in data set [14] (3 mg/kg) came to 38%. Also, the half-life in [10] was 2 h. The molecule also yielded an IC50 in data set [4] of 20 nM.
In data set [1], `CN1CCN(CCCOc2cccc(CC(=O)Nc3nc(-c4c[nH]c5nccc(F)c45)cs3)c2)CC1` displayed a Ki of 10 nM. Also, the half-maximal inhibitory concentration (IC50) in data set [4] came out at 400 nM. In data set [3], the Ratio Ki came to 180.
`CN1CCN(CCOc2cccc(CC(=O)Nc3nc(-c4c[nH]c5ncccc45)cs3)c2)CC1`: the highest level in data set [12] (Cmax) was 60 ng/mL. The Vd in [5] worked out at 14 L/kg. The values for the AUC(0-inf) in [6] and in data set [13] were 240 ng·h/mL and 600 ng·h/mL, respectively. Moreover, the hepatocyte CLint turned out to be 3.3 µL/min/1e6 cells in data set [8] and 32 µL/min/1e6 cells in data set [11]. Moreover, the clearance in [9] was found to be 71 mL/min/kg. In [14], this molecule had a bioavailability of 46%. The molecule further had a half-life in [10] of 3.2 h. This molecule also showed an IC50 in data set [4] of 20 nM.
In the case of `CS(=O)(=O)Nc1cccc(CC(=O)Nc2nc(-c3c[nH]c4ncc(Br)cc34)cs2)c1`, in [1], the affinity corresponds to a Ki of 22 nM. In addition, the 50% inhibitory concentration (IC50) in [4] came out at 10000 nM; in data set [2], 35000 nM. For the same molecule, the Ratio Ki in data set [3] is 32.
With `CS(=O)(=O)Nc1cccc(CC(=O)Nc2nc(-c3c[nH]c4ncc(O)cc34)cs2)c1`, the Ki in data set [1] came out at 7 nM. For the same molecule, the IC50 in data set [4] worked out at 1300 nM; in [2], 5000 nM. In data set [3], the Ratio Ki turned out to be 107.
The like results for `CN1CCN(CCOc2cccc(CC(=O)Nc3nc(-c4c[nH]c5ncc(F)cc45)cs3)c2)CC1` were, in that order, 3 nM, 400 nM, 27000 nM and 320.
